Source: US7419984B2, “Pyrimidines and uses thereof” (Cell Therapeutics, Inc., priority 2002, dated 2008)

Target: T1, human LPAAT-β (Homo sapiens, UniProt O15120)
T1 construct: the full-length human LPAAT-β cDNA was amplified by PCR; poly-histidine tag (N); made in house; host or cells: Sf9 insect cells (baculovirus, pFastBac HTc); the membrane fraction was used as the enzyme
T1 sequence (O15120 24-278): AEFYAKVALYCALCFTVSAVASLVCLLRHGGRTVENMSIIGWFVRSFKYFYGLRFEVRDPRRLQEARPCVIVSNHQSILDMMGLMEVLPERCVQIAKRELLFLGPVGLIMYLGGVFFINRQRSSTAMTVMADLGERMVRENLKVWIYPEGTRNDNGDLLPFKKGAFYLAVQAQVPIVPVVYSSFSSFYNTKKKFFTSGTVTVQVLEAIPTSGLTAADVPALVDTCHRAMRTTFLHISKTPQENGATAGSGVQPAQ
Experiment: LPAAT-β cell-free assay
Format: biochemical
Conditions: Sf9 cell membrane overexpressing recombinant LPAAT-β
Outline: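 Membranes from Sf9 cells expressing His/myc-tagged full-length human LPAAT-β were used in HEPES-saline pH 7.5 with 1 mg/ml BSA. Compound was added from a 200 μM DMSO stock, and reaction with 18:1-CoA and sn-1-18:1 lysoPA (1 mM stocks) ran 25 min at RT. Released CoA was detected with DTNB at 405 nm; a radiometric variant used 200 μM [14C]18:1-CoA and 200 μM lysoPA.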

Row | Structure (SMILES) | IC50 [nM]
1 | Cc1ccc(Cl)cc1-c1cc(Nc2ccc(C(F)(F)F)nc2)nc(N)n1 [Example 126, 6-(5-chloro-2-methylphenyl)-N*4*-(6-trifluoromethylpyridin-3-yl)pyrimidine-2,4-diamine] | 500
2 | CCOc1ccc(Br)cc1-c1cc(Nc2ccc(C(F)(F)F)nc2)nc(N)n1 [Example 128, 6-(5-bromo-2-ethoxyphenyl)-N*4*-(6-trifluoromethylpyridin-3-yl)-pyrimidine-2,4-diamine] | 190
3 | CCOc1ccc(Br)cc1-c1cc(Nc2ccc(C(O)C(F)(F)F)cc2)nc(N)n1 (stereo not shown) [Example 129, 1-{4-[2-Amino-6-(5-bromo-2-ethoxy-phenyl)-pyrimidin4-ylamino]-phenyl}-2,2,2-trifluoro-ethanol] | 14
4 | CCOc1ccc(Br)cc1-c1cc(Nc2ccc(C(C)=NO)cc2)nc(N)n1 [Example 130, 1-{4-[2-Amino-6-(5-bromo-2-ethoxy-phenyl)-pyrimidin4-ylamino]-phenyl}-ethanone-oxime] | 84
5 | CCOc1ccc(Br)cc1-c1cc(Nc2ccc(C)c(C)c2)nc(N)n1 [Example 132, 6-(5-Bromo-2-ethoxy-phenyl)-N*4*-(3,4-dimethyl-phenyl)-pyrimidine-2,4-diamine] | 140
6 | CCOc1ccc(Br)cc1-c1cc(Nc2ccc([N+](=O)[O-])cc2)nc(N)n1 [Example 133, 6-(5-Bromo-2-ethoxy-phenyl)-N*4*-(4-nitro-phenyl)-pyrimidine-2,4-diamine] | 15
7 | CCOc1ccc(Br)cc1-c1cc(Nc2ccc(C(C)O)cc2)nc(N)n1 (stereo not shown) [Example 134] | 110
8 | CCOc1ccc(Br)cc1-c1cc(Nc2ccc(C(C)OC)cc2)nc(N)n1 (stereo not shown) [Example 137, 6-(5-Bromo-2-ethoxy-phenyl)-N*4*-[4-(1-methoxy-ethyl)-phenyl]-pyrimidin-2,4-diamine] | 260
9 | CCOc1ccc(Br)cc1-c1cc(Nc2cccc(C(N)=O)c2)nc(N)n1 [Example 138, 3-[2-Amino-6-(5-Bromo-2-ethoxy-phenyl)-pyrimidin-4yl-amino]-benzamide] | 950
10 | CC(=O)c1ccc(Nc2cc(-c3cccc(Cl)c3)nc(N)n2)cc1 [Example 139, 1-{4-[2-Amino-6-(3-chloro-phenyl)-pyrimidin-4-ylamino]-phenyl}-ethanone] | 340
11 | CCOc1ccc(I)cc1-c1cc(Nc2ccc(N=[N+]=[N-])cc2)nc(N)n1 [Example 140, N*4*-{4-Azido-phenyl)-6-(2-ethoxy-5-iodo-phenyl)-pyrimidine-2,4-diamine] | 100
12 | CC(C)Oc1ccc(Br)cc1-c1cc(Nc2ccc(CCO)cc2)nc(N)n1 [Example 141, 2-{4-[2-Amino-6-(5-bromo-2-isopropoxy-phenyl)-pyrimidin-4-ylamino]-phenyl}-ethanol] | 390
13 | COc1ccc(Br)cc1-c1cc(Nc2ccc(Cl)cc2)nc(N)n1 [Example 142, 6-(5-Bromo-2-methoxy-phenyl)-N*4*-(4-chloro-phenyl)-pyrimidine-2,4-diamine] | 18
14 | COCCOc1ccc(Br)cc1-c1cc(Nc2ccc(Cl)cc2)nc(N)n1 [Example 143, 6-[5-Bromo-2-(2-methoxy-ethoxy)-phenyl]-N*4*-(4-chloro-phenyl)-pyrimidine-2,4-diamine] | 22
15 | Nc1nc(Nc2ccc(Cl)cc2)cc(-c2cc(Br)ccc2OCc2ccccc2)n1 [Example 146, 6-(2-Benzyloxy-5-bromo-phenyl)-N*4*-(4-chloro-phenyl)-pyrimidine-2,4-diamine] | 3
16 | CCCCOc1ccc(Br)cc1-c1cc(Nc2ccc(Cl)cc2)nc(N)n1 [Example 148, 6-(5-Bromo-2-butoxy-phenyl)-N*4*-(4-chloro-phenyl)-pyrimidine-2,4-diamine] | 5
17 | COc1ccc(Br)cc1-c1cc(Nc2ccc(C(F)(F)F)cc2)nc(N)n1 [Example 150, 6-(5-Bromo-2-methoxy-phenyl)-N*4*-(4-trifluoromethyl-phenyl)-pyrimidine-2,4-diamine] | 100
18 | Nc1nc(Nc2ccc(Cl)cc2)cc(-c2ccccc2Oc2ccccc2)n1 [Example 152, N*4*-(4-Chloro-phenyl)-6-(2-phenoxy-phenyl)-pyrimidin-2,4-diamine] | 240
19 | CC(=NO)c1ccc(Nc2cc(-c3cc(Cl)ccc3Cl)nc(N)n2)cc1 [Example 154, 1-{4-[2-Amino-6-(2,5-dichloro-phenyl)-pyrimidin-4-yl-amino]-phenyl}-ethanone oxime] | 98
20 | Nc1nc(Nc2ccc(Cl)cc2)cc(-c2cc(Cl)ccc2OCc2ccccc2)n1 [Example 155, 6-(2-Benzyloxy-5-chloro-phenyl)-N*4*-(4-chloro-phenyl)-pyrimidine-2,4-diamine] | 4
21 | CN(C)CCCOc1ccc(Br)cc1-c1cc(Nc2ccc(Cl)cc2)nc(N)n1 [Example 156, 6-[5-Bromo-2-(3-dimethylamino-propoxy)-phenyl]-N*4*-(4-chloro-phenyl)-pyrimidine-2,4-diamine] | 1400
22 | CCOc1ccc(Br)cc1-c1cc(Nc2ccc(B(O)O)cc2)nc(N)n1 [Example 159, 4-[2-Amino-6-(5-bromo-2-ethoxy-phenyl)-pyrimidin-4-ylamino]-phenyl-boronic acid] | 200
23 | COc1ccc(Br)cc1-c1cc(Nc2ccc(C#N)cc2)nc(N)n1 [Example 160, 4-[2-Amino-6-(5-bromo-2-methoxy-phenyl)-pyrimidin4-ylamino]-benzonitrile] | 38
24 | COc1ccc(Br)cc1-c1cc(Nc2ccc(Br)cc2)nc(N)n1 [Example 162, 6-(5-Bromo-2-methoxy-phenyl)-N*4*-(4-bromo-phenyl)-pyrimidine-2,4-diamine] | 36
25 | CCc1ccc(Cl)cc1-c1cc(Nc2ccc(C(F)(F)F)cc2)nc(N)n1 [Example 164, 6-(5-Chloro-2-ethyl-phenyl)-N*4*-(4-trifluoromethyl-phenyl)-pyrimidine-2,4-diamine] | 670
26 | Nc1nc(Nc2ccc(Cl)cc2)cc(-c2cc(Br)ccc2OCc2ccc(Cl)cc2)n1 [Example 165, 6-[5-Bromo-2-(4-chloro-benzyloxy)-phenyl]-N*4*-(4-chloro-phenyl)-pyrimidine-2,4-diamine] | 3

Further compounds by falling IC50, results first:

Row | IC50 [nM] | Structure (SMILES)
27 | 460 | CCOc1ccc(Br)cc1-c1cc(Nc2cnc3ccccc3c2)nc(N)n1 [Example 144, 6-(5-Bromo-2-ethoxy-phenyl)-N*4*-quinolin-3-yl-pyrimidine-2,4-diamine]
28 | 390 | CC(=NO)c1ccc(Nc2cc(-c3cc(Cl)cc(Cl)c3Cl)nc(N)n2)cc1 [Example 147, 1-{4-[2-Amino-6-(2,3,5-trichloro-phenyl)-pyrimidin-4-ylamino]-phenyl}-ethanone oxime]
29 | 310 | CCc1ccc(Cl)cc1-c1cc(Nc2ccc(Br)cc2)nc(N)n1 [Example 163, N*4*-(4-Bromo-phenyl)-6-(5-chloro-2-ethyl-phenyl)-pyrimidine-2,4-diamine]
30 | 170 | CC(C)Oc1ccc(Br)cc1-c1cc(Nc2ccc(Cl)cc2)nc(N)n1 [Example 136, 6-(5-Bromo-2-isopropoxy-phenyl)-N*4*-(4-chloro-phenyl)-pyrimidine-2,4-diamine]
31 | 71 | Nc1nc(Nc2ccc(Cl)cc2)cc(-c2cc(Br)ccc2OCCN2CCOCC2)n1 [Example 149, 6-[5-Bromo-2-(2-morpholin4-yl-ethoxy)-phenyl]-N*4*-(4-chloro-phenyl)-pyrimidine-2,4-diamine]
32 | 55 | COc1ccc(Br)cc1-c1cc(Nc2ccc(CCO)cc2)nc(N)n1 [Example 151, 2-{4-[2-Amino-6-(5-bromo-2-methoxy-phenyl)-pyrimidin-4-ylamino]-phenyl}-ethanol]
33 | 34 | CCOc1ccc(Br)cc1-c1cc(Nc2ccc(C(C)=O)cc2)nc(N)n1 [Example 127, 1-{4-[2-amino-6-(5-bromo-2-ethoxyphenyl)pyrimidin-4-ylamino]phenyl}ethanone]
34 | 16 | Nc1nc(Nc2ccc(CCO)cc2)cc(-c2cc(Cl)ccc2OCc2ccccc2)n1 [Example 158, 2-[4-{2-Amino-6-(2-benzyloxy-5-chloro-phenyl)-pyrimidin4-ylamino]-phenyl}-ethanol]
35 | 14 | COc1ccc(Br)cc1-c1cc(Nc2ccc([N+](=O)[O-])cc2)nc(N)n1 [Example 161, 6-(5-Bromo-2-methoxy-phenyl)-N*4*-(4-nitro-phenyl)-pyrimidine-2,4-diamine]
36 | 12 | CCOc1ccc(Br)cc1-c1cc(Nc2ccc(C(=O)C(F)(F)F)cc2)nc(N)n1 [Example 131, 1-{4-[2-Amino-6-(5-bromo-2-ethoxy-phenyl)-pyrimidin-4-ylamino]-phenyl}-2,2,2-trifluoro-ethanone]
37 | 8 | CCCOc1ccc(Br)cc1-c1cc(Nc2ccc(Cl)cc2)nc(N)n1 [Example 135, 6-(5-Bromo-2-propoxy-phenyl)-N*4*-(4-chloro-phenyl)-pyrimidine-2,4-diamine]
38 | 6 | Nc1nc(Nc2ccc(C(F)(F)F)cc2)cc(-c2cc(Br)ccc2OCc2ccccc2)n1 [Example 153, 6-(2-Benzyloxy-5-bromo-phenyl)-N*4*-(4-trifluoromethyl-phenyl)-pyrimidine-2,4-diamine]
39 | 5 | CCCCCCOc1ccc(Br)cc1-c1cc(Nc2ccc(Cl)cc2)nc(N)n1 [Example 145, 6-(5-Bromo-2-hexyloxy-phenyl)-N*4*-(4-chloro-phenyl)-pyrimidine-2,4-diamine]
40 | 5 | Nc1nc(Nc2ccc(Cl)cc2)cc(-c2cc(Br)ccc2OCCc2ccccc2)n1 [Example 166, 6-(5-Bromo-2-phenethyloxy-phenyl)-N*4*-(4-chloro-phenyl)-pyrimidine-2,4-diamine]
